This is an account of results in PubChem BioAssay (NCI).

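Grown in 96-well plates, cells were treated for 48 hours with each compound at five concentrations. Insufficient inhibition: endpoint recorded as highest concentration tested. The concentration for 50% growth inhibition is given as GI50. TGI: concentration producing complete growth inhibition.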

Holding throughout (test): DTP human tumour cell line panel, 48 h
For experiment [1], the system named is 786-0 renal.
Experiment [2] concerns HL-60(TB) leukemia.
For experiment [3], the system named is HOP-62 NSCLC.
Experiment [4] relates to KM12 colon.
Experiment [5] concerns MCF7 breast.
Experiment [6] relates to NCI-H226 lung.
The test system of experiment [7] is NCI-H23 lung.
Experiment [8] concerns SN12C renal.
For experiment [9], the system named is T-47D breast.
For experiment [10], the system named is TK-10 renal.

Broadly, the GI50 is the concentration giving 50% growth inhibition. The TGI is the concentration giving total growth inhibition. High values mean lower sensitivity of the cells, low ones greater sensitivity of the cells.

As to `C=CC(=O)N1CC2(CC(n3nc(-c4ccc5c(cnn5C)c4)c(-c4c(Cl)c(C)cc5[nH]ncc45)c3C)C2)C1`, the GI50 was 3.71 µM in experiment [1]; 2.58 µM in experiment [2]; 1.92 µM in experiment [4]; 2.2 µM in experiment [5]; 2.63 µM in [6]; 3.08 µM in experiment [8]. The GI50 in experiment [9] was 3.97 µM; in experiment [10], 3.18 µM. Further, the TGI in [1] amounted to 15.4 µM; in experiment [2], 9.27 µM; in experiment [3], 19.5 µM; in experiment [4], 3.72 µM; in experiment [5], 7.03 µM; in experiment [6], 8.75 µM. For the same compound, the TGI came out at 1.72 µM in experiment [7], 12.1 µM in experiment [8], 19.3 µM in [9] and 12.8 µM in experiment [10].

`O=C(Nc1nc2ccccc2s1)Nc1ccc([N+](=O)[O-])cc1Cl`: the GI50 was 1.92 µM in [1]; 15.2 µM in experiment [2]; 7.61 µM in experiment [3]; 2.82 µM in experiment [4]; 2.55 µM in [5]; 5.58 µM in experiment [6]. Further, the GI50 was 3.49 µM in experiment [7], 4.36 µM in experiment [8], 2.86 µM in experiment [9] and 3.18 µM in experiment [10]. Moreover, the TGI is 3.7 µM in experiment [1]; > 54.7 µM in experiment [2]; 16.6 µM in [3]; 8.48 µM in experiment [4]; 9.72 µM in experiment [5]; 13.1 µM in experiment [6]. For the same compound, the TGI in experiment [7] worked out at 14.6 µM; in experiment [8], 9.53 µM; in experiment [9], 11.7 µM; in experiment [10] it was 7.87 µM.

Consider `CC(=O)[O][Hg][c]1c(C)c(C)cc(C)c1C`, for which the GI50 in experiment [1] is 1.76 µM; in [2], 0.704 µM; in experiment [3], 2.02 µM; in experiment [4], 2.22 µM; in [5], 0.873 µM; in [6], 2.05 µM. Besides, the GI50 in experiment [7] is 1.03 µM; in [8], 1.94 µM; in [9] it was 1.68 µM; in [10], 1.86 µM. For the same compound, the TGI in [1] is 3.28 µM; in experiment [2], 2.61 µM; in [3], 4.05 µM; in [4], 6.26 µM; in [5] it was 2.86 µM; in experiment [6] it was 3.87 µM. The TGI worked out at 3.32 µM in experiment [7], 4.48 µM in experiment [8], 4.79 µM in experiment [9] and 3.84 µM in [10].

Regarding `COc1ccc(/C(C#N)=C2C=C/C(=N/O)c3ccccc3\2)cc1`, the GI50 in experiment [1] is 0.457 µM; in experiment [2] it was 0.254 µM; in experiment [3], 0.376 µM; in experiment [4] it was 0.175 µM; in [5], 0.181 µM; in [6], 3.71 µM. Besides, the GI50 was 0.403 µM in [7], 0.418 µM in experiment [8], 13.7 µM in experiment [9] and 11.3 µM in [10]. Moreover, the TGI in [1] stood at 15 µM; in [2] it was 0.688 µM; in experiment [3], 16 µM; in [4], 4.82 µM; in experiment [5], 14.1 µM; in experiment [6] it was 17 µM. Further, the TGI in experiment [7] is 14.4 µM; in experiment [8] it was 13.5 µM; in experiment [9], 39.7 µM; in [10], 28 µM.

For the compound `CN(CC(=O)N(Cc1ccc(C2CCCCC2)cc1)c1ccc(C(=O)O)cc1)S(=O)(=O)c1c(F)c(F)c(F)c(F)c1F`, the GI50 is 2.28 µM in experiment [1]; 2.08 µM in [2]; 2.09 µM in [3]; 2.94 µM in experiment [4]; 1.65 µM in experiment [5]; 2.49 µM in [6]. For the same compound, the GI50 was 1.92 µM in experiment [7], 2.22 µM in [8], 2.09 µM in [9] and 2.75 µM in experiment [10]. For the same compound, the TGI in [1] amounted to 5.22 µM; in [2], 4.48 µM; in [3] it was 4.59 µM; in experiment [4], 9.01 µM; in experiment [5], 3.48 µM; in [6], 5.51 µM. Besides, the TGI in experiment [7] came to 3.81 µM; in [8], 4.88 µM; in [9], 4.83 µM; in [10], 10.5 µM.

`Cc1cc(N2CCN(C)CC2)n2nc(-c3ccc(Cl)cc3)nc2n1`: the TGI in [1], in [2], in [3], in experiment [4], in experiment [5] and in experiment [6] was > 100 µM in each case. The total growth inhibition concentration (TGI) in experiment [7], in [8], in [9] and in experiment [10] was > 100 µM throughout.

With `NC(=S)c1c(N)n(C2OC(CO)C(O)C2O)c2ncnc(N)c12` (centres undefined), the GI50 in experiment [1] was 0.304 µM; in experiment [2], 0.135 µM; in [3] it was 0.21 µM; in experiment [4] it was 0.258 µM; in [5] it was 0.0579 µM; in [6] it was 0.695 µM. Moreover, the GI50 in [7] was 0.258 µM; in [8], 0.208 µM; in experiment [9] it was 0.238 µM; in [10] it was 0.297 µM. In addition, the TGI in [2] was 0.407 µM; in [3], 0.904 µM; in [4], 9.61 µM; in experiment [6], 16 µM; in experiment [7] it was 1.14 µM; in [8], > 100 µM. The TGI in experiment [9] was 1.17 µM; in [10], 3.56 µM.

With `CCc1nc(N)nc(N)c1-c1ccc(N2CCNCC2)cc1`, the TGI is > 100 µM in experiment [1]; > 71 µM in experiment [2]; > 100 µM in [3]; > 100 µM in experiment [4]; > 94.3 µM in [5]; > 100 µM in experiment [6]. Besides, the TGI was > 97.3 µM in experiment [7], > 100 µM in experiment [8], > 100 µM in experiment [9] and > 100 µM in experiment [10].

For the compound `CN(Cc1cnc2nc(N)nc(N)c2n1)c1ccc(C(=O)NC(CCC(=O)O)C(=O)O)cc1Br` (centres undefined), the GI50 in [1], in experiment [2], in [3], in [4], in experiment [5] and in experiment [6] was < 0.01 µM throughout. In addition, the GI50 was < 0.01 µM in experiment [7], < 0.01 µM in [8], 0.113 µM in experiment [9] and < 0.01 µM in [10]. The TGI in experiment [2] was > 100 µM; in [4], 11.6 µM; in experiment [5], > 100 µM; in [6] it was > 96.4 µM; in experiment [7] it was 2.12 µM; in experiment [8] it was > 100 µM. Besides, the TGI in experiment [9] and in experiment [10] was > 100 µM in each case.
